Data on eleven compounds can be found in patent US7504397B2, “mTOR inhibitor compounds” (Kudos Pharmaceuticals Ltd., priority 2005, dated 2009).

Molecules are shown by their SMILES.

The target in the experiment is mTOR protein (Homo sapiens, UniProt P42345). The experiment is described as follows: mTOR enzyme activity assay (PHAS-1 substrate). Format: biochemical. The conditions noted are these: recombinant PHAS-1 as substrate.
From the text: For mTOR enzyme activity assays, mTOR protein was isolated from HeLa cell cytoplasmic extract by immunoprecipitation, and activity determined essentially as described previously using recombinant PHAS-1 as a substrate (ref. 21).
As for `COc1cc(-c2csc(-c3ccnc(N4CCCC(OC)C4)n3)n2)cc(OC)c1O` (centres unmarked) [Compound 59j], the IC50 is below 1500 nM.
Regarding `COc1cc(-c2cncn2-c2ccnc(N3CCOCC3)n2)cc(OC)c1O` [Compound 50, 2,6-Dimethoxy-4-[3-(2-morpholin-4-yl-pyrimidin-4-yl)-3H-imidazol-4-yl]-phenol], the IC50 is below 1500 nM.
In the case of `COc1cc(C=NN(C)c2nc(N3CCOCC3)c3cccnc3n2)cc(OC)c1O` [Compound 75b], the IC50 is below 1500 nM.
Consider `CN(N=Cc1cc(O)c(O)c(O)c1)c1nc(N2CCOCC2)c2cccnc2n1` [Compound 75a], for which the IC50 was below 1500 nM.
Turning to `COc1cc(-c2csc(-c3ccnc(N4CCOC[C@@H]4C)n3)n2)cc(OC)c1O` [Compound 59i], the IC50 was below 1500 nM.
Turning to `COc1cc(-c2csc(-c3ccnc(N4CCOCC4)n3)c2)cc(OC)c1O` [Compound 69a], the IC50 was below 1500 nM.
`COc1cc(C=NNc2cc(N3CCOCC3)nc(N3CCCCC3)n2)cc(OC)c1O` [Compound 12b]: the IC50 is below 1500 nM.
In the case of `COc1cc2ncnc(NN=Cc3ccc(O)c(O)c3)c2cc1OC` [Compound 41a], the IC50 was below 1500 nM.
As for `Oc1c(F)cc(-c2csc(-c3ccnc(N4CCOCC4)n3)n2)cc1F` [Compound 59a], the IC50 is below 1500 nM.
For `O=C(NNc1nc(N2CCOCC2)nc(N2CCOCC2)n1)c1cc(O)c(O)c(O)c1` [Compound 47a] the value was below 1500 nM; for `COc1cc(-c2csc(-c3ccnc(N4CCOCC4)n3)n2)cc(OC)c1O` [Compound 27, 2,6-Dimethoxy-4-[2-(2-morpholin-4-yl-pyrimidin-4-yl)-thiazol-4-yl]-phenol], below 1500 nM.

The term IC50 denotes the concentration that inhibits the measured activity by half.
